From patent publication US7169786B2, “Isoxazoline derivatives as anti-depressants” (priority 2001, dated 2007)

What was measured:
[1] = target: T1, hα2A receptor (Homo sapiens, UniProt P08913); test: Radioligand binding experiment for hα2A receptor ([3H]-raulwolscine); details: membranes of CHO cells expressing human α2A receptor; [3H]raulwolscine 1 nM; read-out: hα2A pIC50 (converted)
T1 construct: expressed in transfected cells
T1 sequence (P08913 1-465): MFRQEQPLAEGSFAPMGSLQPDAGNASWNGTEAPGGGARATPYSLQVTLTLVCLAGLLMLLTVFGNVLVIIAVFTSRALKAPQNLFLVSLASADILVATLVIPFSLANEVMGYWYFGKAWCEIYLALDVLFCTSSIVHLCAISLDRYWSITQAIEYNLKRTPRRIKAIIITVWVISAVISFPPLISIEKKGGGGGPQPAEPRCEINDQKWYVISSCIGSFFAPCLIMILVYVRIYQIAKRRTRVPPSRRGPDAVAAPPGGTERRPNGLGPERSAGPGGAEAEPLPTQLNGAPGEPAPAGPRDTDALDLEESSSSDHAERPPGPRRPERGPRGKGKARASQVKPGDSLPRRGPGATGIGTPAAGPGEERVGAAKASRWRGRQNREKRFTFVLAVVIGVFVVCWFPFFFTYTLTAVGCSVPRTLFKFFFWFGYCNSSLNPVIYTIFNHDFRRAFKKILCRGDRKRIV
Description: (§1) The interaction of the compounds of Formula (I) with hα2-receptors and h5-HT-transporters was assessed in in vitro radioligand binding experiments. In general, a low concentration of a radioligand with a high binding affinity for a particular receptor or transporter is incubated with a sample of a tissue preparation enriched in a particular receptor or transporter or with a preparation of cells expressing cloned human receptors in a buffered medium. During the incubation, the radioligand binds to the receptor or transporter. When equilibrium of binding is reached, the receptor bound radioactivity is separated from the non-bound radioactivity, and the receptor- or transporter-bound activity is counted. The interaction of the test compounds with the receptor is assessed in competition binding experiments. Various concentrations of the test compound are added to the incubation mixture containing the receptor- or transporter preparation and the radioligand. The test compound in proportion to its binding affinity and its concentration inhibits binding of the radioligand. The radioligand used for hα2A, hα2B and hα2C receptor binding was [^3H]-raulwolscine and for the h5-HT transporter was [^3H]paroxetine.
(§2) CHO cells, stabile transfected with human adrenergic-α2A-, -α2B or α2C receptor cDNA, were cultured in Dulbecco's Modified Eagle's Medium (DMEM)/Nutrient mixture Ham's F12 (ratio 1:1)(Gibco, Gent-Belgium) supplemented with 10% heat inactivated fetal calf serum (Life Technologies, Merelbeke-Belgium) and antibiotics (100 IU/ml penicillin G, 100 μg/ml streptomycin sulphate, 110 μg/ml pyruvic acid and 100 μg/ml L-glutamine). One day before collection, cells were induced with 5 mM sodiumbutyrate. Upon 80–90% of confluence, cells were scraped in phosphate buffered saline without Ca^2+ and Mg^2+ and collected by centrifugation at 1500×g for 10 min. The cells were homogenised in Tris-HCl 50 mM using an Ultraturrax homogenizer and centrifuged for 10 min at 23,500×g. The pellet was washed once by resuspension and rehomogenization and the final pellet was resuspended in Tris-HCl, divided in 1 ml aliquots and stored at −70° C.
(§3) Membranes were thawed and re-homogenized in incubation buffer (glycylglycine 25 mM, pH 8.0). […] Filters were rinsed extensively with ice-cold rinsing buffer (Tris-HCl 50 mM pH 7.4). Filter-bound radioactivity was determined by scintillation counting in a Topcount (Packard, Meriden, Conn.) and results were expressed as counts per minute (cpm). Non-specific binding was determined in the presence of 1 μM oxymetazoline for hα2A- and hα2B receptors and 1 μM spiroxatrine for hα2C receptors.
(§4) Data from assays in the presence of compound were calculated as a percentage of total binding measured in the absence of test compound. Inhibition curves, plotting percent of total binding versus the log value of the concentration of the test compound, were automatically generated, and sigmoidal inhibition curves were fitted using non-linear regression. The pIC50 values of test compounds were derived from individual curves.

[2] = target: T2, hα2B receptor (Homo sapiens, UniProt P18089); test: Radioligand binding experiment for hα2B receptor ([3H]-raulwolscine); details: membranes of CHO cells expressing human α2B receptor; [3H]raulwolscine 1 nM; read-out: hα2B pIC50 (converted)
T2 construct: expressed in transfected cells
T2 sequence (P18089 1-450): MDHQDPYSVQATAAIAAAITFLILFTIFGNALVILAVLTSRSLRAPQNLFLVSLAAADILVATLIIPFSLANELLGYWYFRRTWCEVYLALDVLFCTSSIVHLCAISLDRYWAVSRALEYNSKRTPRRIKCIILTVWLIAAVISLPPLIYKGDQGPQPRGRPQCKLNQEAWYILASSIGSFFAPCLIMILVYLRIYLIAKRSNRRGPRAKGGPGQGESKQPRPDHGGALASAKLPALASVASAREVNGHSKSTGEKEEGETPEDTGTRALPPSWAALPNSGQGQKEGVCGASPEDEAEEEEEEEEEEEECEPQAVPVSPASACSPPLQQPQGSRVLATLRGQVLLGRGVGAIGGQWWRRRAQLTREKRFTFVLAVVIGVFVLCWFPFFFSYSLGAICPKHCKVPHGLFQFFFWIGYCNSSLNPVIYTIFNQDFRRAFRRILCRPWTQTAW
Description: as §1, §2, §3, §4

[3] = target: T3, hα2C receptor (Homo sapiens, UniProt P18825); test: Radioligand binding experiment for hα2C receptor ([3H]-raulwolscine); details: membranes of CHO cells expressing human α2C receptor; [3H]raulwolscine 1 nM; read-out: hα2C pIC50 (converted)
T3 construct: expressed in transfected cells
T3 sequence (P18825 1-462): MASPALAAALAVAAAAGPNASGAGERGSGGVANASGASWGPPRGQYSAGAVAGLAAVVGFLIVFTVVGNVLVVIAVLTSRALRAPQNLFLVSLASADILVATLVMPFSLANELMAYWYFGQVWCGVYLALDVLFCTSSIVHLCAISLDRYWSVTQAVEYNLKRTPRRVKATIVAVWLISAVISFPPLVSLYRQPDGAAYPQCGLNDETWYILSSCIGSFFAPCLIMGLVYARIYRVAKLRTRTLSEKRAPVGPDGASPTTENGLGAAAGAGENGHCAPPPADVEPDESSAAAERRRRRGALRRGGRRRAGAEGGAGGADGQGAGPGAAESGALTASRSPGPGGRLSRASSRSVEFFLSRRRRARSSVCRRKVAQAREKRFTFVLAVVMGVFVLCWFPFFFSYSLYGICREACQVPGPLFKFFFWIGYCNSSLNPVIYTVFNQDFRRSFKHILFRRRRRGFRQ
Description: as §1, §2, §3, §4

[4] = target: T4, h5-HT transporter (Homo sapiens, UniProt P31645); test: Radioligand binding experiment for 5-HT transporter ([3H]paroxetine, human platelet membranes); details: human platelet membranes; [3H]paroxetine 0.5 nM; read-out: 5HTT pIC50 (converted)
T4 construct: Human platelet membranes (Oceanix Biosciences Corporation, Hanover, Md., USA) were thawed; tissue Oceanix Biosciences Corporation, Hanover, Md., USA; host or cells: human platelet membranes
Description: as §1
Human platelet membranes (Oceanix Biosciences Corporation, Hanover, Md., USA) were thawed, diluted in buffer (Tris-HCl 50 mM, 120 mM NaCl and 5 mM KCl) and quickly (max 3 s) homogenised with an Ultraturrax homogenizer. […] Filters were rinsed extensively with ice-cold buffer and radioactivity on the filters was counted in a Topcount liquid scintillation counter (Packard, Meriden, Conn.). Data were expressed as cpm. Imipramine (at 1 μM final concentration) was used to determine the non-specific binding.
as §4

T4 sequence (P31645 whole entry): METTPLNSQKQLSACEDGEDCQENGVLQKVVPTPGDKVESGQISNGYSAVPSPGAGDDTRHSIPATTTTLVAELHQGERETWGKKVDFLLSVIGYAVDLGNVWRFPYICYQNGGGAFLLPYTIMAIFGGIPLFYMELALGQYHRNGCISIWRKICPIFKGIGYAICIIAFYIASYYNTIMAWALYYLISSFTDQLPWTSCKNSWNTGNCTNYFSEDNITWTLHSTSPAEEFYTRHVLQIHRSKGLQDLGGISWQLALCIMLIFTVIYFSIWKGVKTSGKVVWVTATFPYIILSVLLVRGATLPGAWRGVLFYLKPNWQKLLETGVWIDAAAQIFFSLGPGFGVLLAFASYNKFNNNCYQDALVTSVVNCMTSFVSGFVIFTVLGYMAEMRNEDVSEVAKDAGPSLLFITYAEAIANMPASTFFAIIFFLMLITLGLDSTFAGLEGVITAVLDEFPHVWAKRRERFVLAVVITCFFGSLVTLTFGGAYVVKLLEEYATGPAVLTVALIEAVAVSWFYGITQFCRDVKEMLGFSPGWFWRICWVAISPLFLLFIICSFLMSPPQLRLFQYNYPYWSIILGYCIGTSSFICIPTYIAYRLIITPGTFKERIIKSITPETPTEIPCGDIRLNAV

SMILES | IC50 [1] [nM] | IC50 [2] [nM] | IC50 [3] [nM] | IC50 [4] [nM]
COc1cc2c(cc1OC)C1=NOC(CN3CCN(CC4=Cc5ccccc5CC4)CC3)C1CO2 (centres unmarked) [Compound 21] | 1.62 | 18.6 | 1.05 | 1.2
COc1cc2c(cc1OC)C1=NOC(CN3CCN(CC(C)Nc4ccccc4)CC3)C1CO2 (centres unmarked) [Compound 26] | 525 | 102 | 245 | 676
COc1cc2c(cc1OC)C1=NOC(CN3CCN(CC(C)Oc4cccc(F)c4)CC3)C1CO2 (centres unmarked) [Compound 27] | 4.07 | 6.03 | 1.55 | 18.2
COc1cc2c(cc1OC)C1=NOC(CN3CCN(Cc4ccccc4)CC3)C1CO2 (centres unmarked) [Compound 31] | 794 | 631 | 1000 | 501
COc1cc2c(cc1OC)C1=NOC(CN3CCN(CCCc4ccccc4)CC3)C1CO2 (centres unmarked) [Compound 32] | 12.6 | 14.5 | 11.5 | 17
COc1cc2c(cc1OC)C1=NOC(CN3CCN(CC=Cc4ccc(F)cc4)CC3)C1CO2 (centres unmarked) [Compound 43] | 102 | 64.6 | 138 | 15.8
COc1cc2c(cc1OC)C1=NOC(CN3CCN(Cc4ccc5ccccc5n4)CC3)C1CO2 (centres unmarked) [Compound 45] | 57.5 | 70.8 | 43.7 | 69.2
COc1cc2c(cc1OC)C1=NOC(CN3CCN(CCc4ccc5c(c4)OCO5)CC3)C1CO2 (centres unmarked) [Compound 47] | 661 | 447 | 851 | 50.1
COc1cc2c(cc1OC)C1=NOC(CN3CCN(CCOc4ccc(F)cc4)CC3)C1CO2 (centres unmarked) [Compound 48] | 13.2 | 5.75 | 4.37 | 126
COc1cc2c(cc1OC)C1=NOC(CN3CCN(Cc4cc5ccccc5o4)CC3)C1CO2 (centres unmarked) [Compound 54] | 19.1 | 38 | 36.3 | 41.7
COc1cc2c(cc1OC)C1=NOC(CN3CCN(CC4=Cc5ccccc5OC4)CC3)C1CO2 (centres unmarked) [Compound 65] | 13.2 | 18.2 | 5.13 | 5.13
COc1cc2c(cc1F)C1=NOC(CN3CCN(CC(C)=Cc4ccccc4)CC3)C1CO2 (centres unmarked) [Compound 241] | 16.6 | 7.41 | 6.31 | 
